In PMC9182007, “Statistical Methods in the Study of Protein Binding and Its Relationship to Drug Bioavailability in Breast Milk” (Molecules, 2022):
Like-named read-outs stand apart in the source and are kept apart here.

Assays:
[1] = target: T1, bovine serum albumin (BSA) (Bos taurus, UniProt P02769); test: RP TLC on plates impregnated with bovine serum albumin; type: binding; settings: Table S4, RP plate impregnated with 2 mg/mL BSA; pH 7.4 mobile phase
T1 construct: purchased Sigma Aldrich
Text: (§1) Chromatographic descriptors were obtained in experiments, thin layer chromatography in normal (NP TLC) and reversed mode (RP TLC). The stationary phase was modified with bovine serum albumin (BSA). TLC was the source of retention factor (Rf) values, denoted in statistical models as NP and RP.
(§2) For TLC chromatography, glass plates 20 × 20 cm from Merck, covered with silica gel with the addition of a fluorescent indicator, were used. Normal phase (NP) plates were used with standard Merck TLC Silica gel 60 F254 plates, while in reverse phase (RP) silanized plates RP-2: Merck TLC Silica gel 60 RP-2 F254 were used.
(§3) The stationary phase of the plates, both NP and RP, was modified with an aqueous solution of bovine serum albumin purchased from Sigma Aldrich (bovine serum albumin, lyophilized powder).
(§4) The impregnation of the plates was carried out with a 2 mg/mL solution applied to the surface using a Desaga SG 1 hand sprayer; the plates were then air dried. […] Normal and reversed phase thin layer chromatography (NP TLC and RP TLC respectively) was performed using silica-gel-coated glass plates. Half of them were covered with 2 mg/mL bovine serum albumin solution and half remained pure.
(§5) The mobility of the compounds was also determined on the plates with no protein as a modifier. […] The acetate buffer (20 mM) was prepared by dissolving 1.54 g of ammonium acetate in 1 L of distilled water. The pH was then adjusted with a concentrated ammonia solution using a pH meter. The plates were developed in standard, vertical chromatographic chambers, each time using 100 mL of the mobile phase, after the chamber was previously saturated with solvent vapors for approximately 1 h.
(§6) The unfolded-protein-impregnated plates and the control plates were scanned with a Desaga CD 60 densitometer. The values of the delay factor (Rf) were collected, i.e., the ratio of the distance traveled by the substance to be analyzed to the distance traveled through the front of the mobile phase. […] The experiment was repeated (for both BSA-coated and control plates) and the Rf values pooled are the mean of both series of experiments.

[2] = HPLC on immobilized artificial membrane column (HPLCIAM); type: physicochemical; settings: for log k IAM: Table S5, IAM column, pH 7.4; for k IAM: Table S5, retention factor, IAM column, phosphate buffer pH 7.4/acetonitrile 80:20
Experimental: High performance liquid chromatography was performed using immobilized human serum albumin column (HPLCHSA) and immobilized artificial membrane (HPLCIAM). HPLC was the source of the log k values (logarithm of retention factor), log kHSA and log kIAM.
The second experiment was performed using an immobilized artificial membrane (IAM) column. The assay was also performed on a Perkin Elmer Series 200 instrument connected to a UV-VIS spectrometer as the detector. The analytical wavelength was the same for all compounds, at 210 nm. […] The mobile phase was a mixture of 10 mM phosphate buffer pH 7.4 and acetonitrile in the ratio 80:20 (v/v). The phosphate buffer was obtained by dissolving the finished tablet in the appropriate amount of distilled water (1 tablet per 200 mL). In this case, it was not necessary to adjust the pH of the buffer using a pH meter.
The phase flow through the system was set to 0.5 mL/min as recommended by the column manufacturer. The solutions were delivered to the column using an autosampler syringe, the injection size was 10 µL.
The experiment was then repeated and the collected retention rates were the mean values of both series.

plasma protein = settings: ref DrugBank [7], cited from earlier work
[3] = RP TLC on non-impregnated control plates; type: physicochemical; settings: Table S4, non-impregnated RP plate; acetonitrile/acetate buffer pH 7.4/methanol 60:20:20
Experimental: as §2
Normal and reversed phase thin layer chromatography (NP TLC and RP TLC respectively) was performed using silica-gel-coated glass plates. Half of them were covered with 2 mg/mL bovine serum albumin solution and half remained pure.
as §5, §6

[4] = target: T1, bovine serum albumin (BSA); test: NP TLC on plates impregnated with bovine serum albumin; type: binding; settings: Table S3, NP plate impregnated with 2 mg/mL BSA; pH 7.4 mobile phase
Text: as §1, §2, §3, §4, §5, §6

[5] = source not stated, cited from earlier work
[6] = NP TLC on non-impregnated control plates; type: physicochemical; settings: Table S3, non-impregnated NP plate; acetonitrile/acetate buffer pH 7.4/methanol 60:20:20
[7] = target: T2, human serum albumin (HSA) (Homo sapiens, UniProt P02768); settings: for log k HSA: human, immobilized hsa column
[8] = target: T2, human serum albumin (HSA); test: in vitro; settings: immobilized hsa column, pH 7.4
[9] = Table S1, coded 1/0; ref DrugBank [7]; cited from earlier work
[10] = Table S1, milk/plasma drug concentration ratio, in vivo; cited from earlier work
[11] = Milk-to-plasma (M/P) drug concentration ratio obtained in vivo, from literature; set-up: species or system human; settings: Table S1, scale of drug penetration into milk 1-4
[12] = Table S1, plasma protein binding given as fraction
[13] = Table S5, retention factor, HSA column, pH 7.4, 25 degrees Celsius

T2 sequence (P02768 25-609): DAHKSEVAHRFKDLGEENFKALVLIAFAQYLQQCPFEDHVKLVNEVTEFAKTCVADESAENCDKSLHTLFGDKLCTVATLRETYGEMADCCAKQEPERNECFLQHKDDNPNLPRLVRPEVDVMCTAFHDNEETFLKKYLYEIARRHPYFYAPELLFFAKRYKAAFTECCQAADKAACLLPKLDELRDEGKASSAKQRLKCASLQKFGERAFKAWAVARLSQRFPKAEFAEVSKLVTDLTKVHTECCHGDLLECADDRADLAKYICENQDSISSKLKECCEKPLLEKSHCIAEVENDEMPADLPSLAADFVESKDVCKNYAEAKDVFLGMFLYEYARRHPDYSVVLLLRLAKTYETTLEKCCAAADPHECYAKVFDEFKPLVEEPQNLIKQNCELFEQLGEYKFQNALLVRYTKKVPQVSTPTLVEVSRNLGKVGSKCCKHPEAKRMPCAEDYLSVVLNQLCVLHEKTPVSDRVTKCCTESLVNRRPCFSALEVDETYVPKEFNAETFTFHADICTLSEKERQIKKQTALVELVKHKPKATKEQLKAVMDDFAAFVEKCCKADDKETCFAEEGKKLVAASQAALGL
T1 sequence (P02769 25-607): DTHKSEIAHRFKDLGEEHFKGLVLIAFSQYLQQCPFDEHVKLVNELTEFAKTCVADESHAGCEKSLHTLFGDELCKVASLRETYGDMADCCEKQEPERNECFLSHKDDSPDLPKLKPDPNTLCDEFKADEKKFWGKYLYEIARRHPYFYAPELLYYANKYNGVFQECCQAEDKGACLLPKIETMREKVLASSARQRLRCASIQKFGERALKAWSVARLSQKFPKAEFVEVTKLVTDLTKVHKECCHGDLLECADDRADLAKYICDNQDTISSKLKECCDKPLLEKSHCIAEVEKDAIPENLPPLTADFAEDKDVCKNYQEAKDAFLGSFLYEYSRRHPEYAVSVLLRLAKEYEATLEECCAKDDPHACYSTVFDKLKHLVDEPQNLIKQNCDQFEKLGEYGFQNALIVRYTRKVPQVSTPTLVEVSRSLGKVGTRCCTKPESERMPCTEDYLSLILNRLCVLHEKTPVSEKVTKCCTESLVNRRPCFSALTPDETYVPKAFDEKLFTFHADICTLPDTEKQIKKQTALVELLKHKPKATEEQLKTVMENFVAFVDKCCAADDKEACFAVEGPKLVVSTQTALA

Row | SMILES | RP (Rf, BSA-impregnated RP plate) [1] | log k IAM [2] | k IAM [2] | PB (plasma protein; [12]) | CRP (Rf, control RP plate) [3] | NP (Rf, BSA-impregnated NP plate) [4] | BB vivo ([5]; Table S1) | CNP (Rf, control NP plate) [6] | k HSA ([7]; pH 7.4) | chromatographic logD [8] | CNS+/- [9] | M/P [10] | M/P code [11] | k HSA [7, 13] | PB (plasma protein; Table S6, external group (n = 38), given as fraction) | BB vivo ([5]; Table S6, external group) | log k HSA ([7]; pH 7.4)
1 | CC(C)C[C@H]1C(=O)N2CCC[C@H]2[C@]2(O)O[C@](NC(=O)[C@@H]3C=C4c5cccc6[nH]c(Br)c(c56)C[C@H]4N(C)C3)(C(C)C)C(=O)N12 [bromocriptine] | 0.70 | 1.10 | 12.69 | 0.93 | 0.69 | 0.96 | -1.100 | 0.95 | 8.09 | 0.91 |  |  |  |  |  |  | 
2 | O=C1CC2(CCCC2)CC(=O)N1CCCCN1CCN(c2ncccn2)CC1 [buspirone] |  | 0.84 | 7.00 |  |  |  | 0.480 |  |  |  |  |  |  |  |  |  | 
3 | C[C@H]1c2cccc(O)c2C(=O)C2=C(O)[C@]3(O)C(=O)C(C(N)=O)=C(O)[C@@H](N(C)C)[C@@H]3[C@@H](O)[C@@H]21 [doxycycline] | 0.09 | 0.24 | 1.76 | 0.9 | 0.08 | 0.05 |  | 0.06 |  | 0.23 | 0 | 0.34 | 1 (Code 1 corresponds to drugs with an M/P value <0.40—completely safe) | 1.68 |  |  | 
4 | CCOC(=O)[C@H](CCc1ccccc1)N[C@@H](C)C(=O)N1CCC[C@H]1C(=O)O [enalapril] | 0.58 | -1.29 | 0.05 | 0.55 | 0.60 | 0.33 |  | 0.33 |  | -0.47 | 0 | 0.02 | 1 (Code 1 corresponds to drugs with an M/P value <0.40—completely safe) | 0.34 |  |  | 
5 | CCO [ethanol] |  |  |  |  |  |  |  |  |  |  |  |  |  |  | 0.00 | -0.16 | 
6 | OCCN1CCN(CCC=C2c3ccccc3Sc3ccc(C(F)(F)F)cc32)CC1 [flupenthixol] | 0.66 | 1.71 | 51.21 | 0.95 | 0.66 | 0.52 |  | 0.51 |  | 1.19 | 1 | 1.15 | 3 (3 range 0.81–1.20—possibly over the safety limit) | 15.36 |  |  | 
7 | COc1ccc2c(c1)c(CC(=O)O)c(C)n2C(=O)c1ccc(Cl)cc1 [indomethacin] |  | 0.03 | 1.08 | 0.97 |  |  | -1.260 |  |  |  |  |  |  |  |  |  | 
8 | Nc1nnc(-c2cccc(Cl)c2Cl)c(N)n1 [lamotrigine] |  | -0.15 | 0.71 | 0.55 | 0.87 |  | 0.480 | 0.89 |  |  |  |  |  |  |  |  | 
9 | O=C1Nc2ccc(Cl)cc2C(c2ccccc2Cl)=NC1O (centres unmarked) [lorazepam] |  | 0.96 | 9.04 | 0.87 |  |  | 0.440 |  | 2.21 |  |  |  |  |  |  |  | 
10 | C[C@](N)(Cc1ccc(O)c(O)c1)C(=O)O [methyldopa] | 0.86 | -1.02 | 0.10 | 0.2 | 0.85 | 0.37 |  | 0.38 |  | -0.44 | 0 | 0.265 | 1 (Code 1 corresponds to drugs with an M/P value <0.40—completely safe) | 0.36 |  |  | 
11 | CCCN1C[C@H](CSC)C[C@@H]2c3cccc4[nH]cc(c34)C[C@H]21 [pergolide] | 0.53 |  |  | 0.9 | 0.55 | 0.47 | 0.300 | 0.48 |  |  | 1 |  |  | 0.07 |  |  | -1.15
12 | CN(C)CCCN1c2ccccc2Sc2ccccc21 [promazine] | 0.51 | -1.02 | 0.10 | 0.94 | 0.51 | 0.37 | 0.880 | 0.39 |  |  | 1 |  |  | 8.9 |  |  | 0.95
13 | CN(C)CCc1c[nH]c2ccc(Cn3cncn3)cc12 [rizatriptan] |  | 0.40 | 2.53 |  |  | 0.20 | 0.780 | 0.20 |  |  | 1 |  |  | 2.06 |  |  | 0.31
14 | Cn1c(=O)c2[nH]cnc2n(C)c1=O [theophylline] |  | -0.94 | 0.12 |  |  |  | -0.341 |  |  |  |  |  |  |  |  |  | 
15 | CSc1ccc2c(c1)N(CCC1CCCCN1C)c1ccccc1S2 (centres unmarked) [thioridazine] | 0.40 | 1.68 | 47.61 |  | 0.40 | 0.43 | 0.285 | 0.47 |  |  |  |  |  | 18.57 |  |  | 1.27
16 | O=c1n(CCCN2CCN(c3cccc(Cl)c3)CC2)nc2ccccn12 [trazodone] | 0.74 | 0.97 | 9.30 | 0.92 | 0.76 | 0.72 |  | 0.71 |  | 0.35 | 1 | 0.53 | 2 (2 corresponds to the range of 0.40–0.80—at the safety limit) | 2.22 |  |  | 
17 | CCCC(CCC)C(=O)O [valproic acid] | 0.04 | -1.09 | 0.08 | 0.85 | 0.04 | 0.67 |  | 0.69 |  | 0.65 | 1 | 0.05 | 1 (Code 1 corresponds to drugs with an M/P value <0.40—completely safe) | 4.46 |  |  | 
18 | Cc1ccc(-c2nc3ccc(C)cn3c2CC(=O)N(C)C)cc1 [zolpidem] |  | 0.42 | 2.60 |  |  |  | -0.480 |  | 1.77 |  |  |  |  |  |  |  | 
